The target of this assay is T1, androgen receptor (Homo sapiens, UniProt P10275).
T1 sequence (P10275 1-920 Q868H): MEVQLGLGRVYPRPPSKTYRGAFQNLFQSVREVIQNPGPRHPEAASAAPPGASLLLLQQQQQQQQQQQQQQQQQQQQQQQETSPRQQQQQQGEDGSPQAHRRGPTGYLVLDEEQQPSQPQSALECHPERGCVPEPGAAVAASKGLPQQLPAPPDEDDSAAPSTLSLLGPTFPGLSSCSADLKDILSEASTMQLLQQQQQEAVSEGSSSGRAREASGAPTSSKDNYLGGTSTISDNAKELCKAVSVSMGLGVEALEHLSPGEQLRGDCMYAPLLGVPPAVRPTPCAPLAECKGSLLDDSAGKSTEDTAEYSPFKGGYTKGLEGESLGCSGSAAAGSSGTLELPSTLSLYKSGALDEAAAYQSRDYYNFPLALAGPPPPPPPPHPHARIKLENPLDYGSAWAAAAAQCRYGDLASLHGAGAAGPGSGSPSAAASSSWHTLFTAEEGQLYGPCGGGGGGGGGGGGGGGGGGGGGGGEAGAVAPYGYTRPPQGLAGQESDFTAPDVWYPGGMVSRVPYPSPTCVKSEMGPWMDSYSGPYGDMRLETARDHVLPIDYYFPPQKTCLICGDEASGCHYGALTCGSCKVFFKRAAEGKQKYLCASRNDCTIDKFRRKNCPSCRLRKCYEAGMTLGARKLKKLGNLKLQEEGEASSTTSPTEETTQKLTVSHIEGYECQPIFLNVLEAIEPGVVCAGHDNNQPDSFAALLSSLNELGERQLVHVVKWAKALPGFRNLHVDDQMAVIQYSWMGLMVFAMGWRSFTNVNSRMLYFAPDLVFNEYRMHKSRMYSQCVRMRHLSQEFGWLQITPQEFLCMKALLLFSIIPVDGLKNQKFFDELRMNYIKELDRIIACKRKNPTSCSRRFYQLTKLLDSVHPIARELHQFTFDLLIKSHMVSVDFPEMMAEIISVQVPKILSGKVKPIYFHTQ
The experiment in a line: AR Antagonist Cell Assay (MMTV-luciferase reporter, DHT-stimulated). The settings on record: MDA-MB453-MMTV clone 54-19 cells; antagonism of 100 pM DHT, 17 hr, luciferase readout. It counts as cell-based. Here is the method:
The compounds ability to antagonize the effects of androgen on the androgen receptor were determined in the protocol described immediately below.
Experimental Procedure for AR Antagonist Cell Assay
Cell line: MDA-MB453-MMTV clone 54–19. This cell line is a stable transfected cell line with MDA-MB453 cell background (human breast tumor cell expressing high level of androgen receptor). A MMTV minimal promoter containing ARE was first cloned in front of a firefly luciferase reporter gene. Then the cascade was cloned into transfection vector pUV120puro. Electroporation method was used for transfecting MDA-MB-453 cell. Puromycin resistant stable cell line was selected.
Cell Culture Media and Reagents:
Culture medium: DMEM (high glucose, Gibco cat #: 11960-044), 10% FBS, and 1% L-glutamine
Plating medium: DMEM (phenol red free), 10% charcoal treated HyClone serum, 1% L-glutamine
Assay medium: DMEM (phenol red free), 1% charcoal treated HyClone serum, 1% L-glutamine, and 1% penicillin/streptomycin
3× luciferase buffer: 2% beta-mercaptoethanol, 0.6% ATP, 0.0135% luciferine in cell lysis buffer
• 1. Cells are maintained in culture medium, splitting cells when they reach 80–90% confluence • 2. To test compounds, 10,000 cells/well are plated to opaque 96 cell culture plate in 100 ul/well plating medium, culture for overnight at 37° C. in cell culture incubator • 3. Carefully remove plating medium, then add 80 ul/well of pre-warmed assay medium, add 10 ul/well testing compound (final concentration at 10 uM or 1 uM), incubate at 37° C. for 30 minutes • 4. Add 10 ul/well freshly prepared DHT (final concentration at 100 pM) to each well, incubate at 37° C. for 17 hr (overnight) • 5. Add 50 ul/well 3× luciferase buffer, incubate at room temperature for 5 minutes, then count on Luminometer.
The fold induction over background by 100 pM DHT in the absence of testing compounds is standardized as 100% and experimental result is expressed as percentage of inhibition by testing compounds.
Background: A reporter such as luciferase makes a cellular process visible.

SMILES strings stand for the structures.

This note sets out measurements from patent US7098340B2, “Benzyl sulfonamide derivatives” (Warner Lambert Company LLC, priority 2003, dated 2006).

On to `O=c1cc(C(F)(F)F)c2cc(Cc3ccc(S(=O)(=O)NCc4cccc(Cl)c4F)cc3)ccc2[nH]1` [Example 77, N-(3-Chloro-2-fluorobenzyl)-4-(2-oxo-4-trifluoromethyl-1,2-dihydroquinolin-6-ylmethyl)-benzenesulfonamide], for which the IC50 was above 10 µM.

Molecule `O=c1cc(C(F)(F)F)c2cc(Cc3ccc(S(=O)(=O)Nc4cccc(OC(F)(F)F)c4)cc3)ccc2[nH]1` [Example 42, 4-(2-Oxo-4-trifluoromethyl-1,2-dihydroquinolin-6-ylmethyl)-N-(3-trifiuoromethoxyphenyl)-benzenesulfonamide] returned an IC50 above 10 µM.

Consider `COc1ccccc1CCNS(=O)(=O)c1ccc(Cc2ccc3oc(=O)cc(C(F)(F)F)c3c2)cc1` [Example 190, N-[2-(2-Methoxyphenyl)ethyl]-4-(2-oxo-4-trifluoromethyl-2H-chromen-6-ylmethyl)benzenesulfonamide], for which the IC50 was 5.41 µM.

`O=c1cc(C(F)(F)F)c2cc(Cc3ccc(S(=O)(=O)NCCN4CCCC4)cc3)ccc2[nH]1` [Example 56, 4-(2-Oxo-4-trifluoromethyl-1,2-dihydroquinolin-6-ylmethyl)-N-(2-pyrrolidin-1-yl-ethyl)-benzenesulfonamide] returned an IC50 of 3.64 µM.

As to `CCN(Cc1ccccc1)S(=O)(=O)c1ccc(Cc2ccc3oc(=O)cc(C(F)(F)F)c3c2)cc1` [Example 110, N-Benzyl-N-ethyl-4-(2-oxo-4-trifluoromethyl-2H-chromen-6-ylmethyl)benzenesulfonamide], the IC50 is 5.94 µM.

For `CSc1cccc(NS(=O)(=O)c2ccc(Cc3ccc4oc(=O)cc(C(F)(F)F)c4c3)cc2)c1` [Example 134, N-(3-Methylsulfanylphenyl)-4-(2-oxo-4-trifluoromethyl-2H-chromen-6-ylmethyl)-benzenesulfonamide], the 50% inhibitory concentration (IC50) worked out at 1.24 µM.

Molecule `O=c1cc(C(F)(F)F)c2cc(Cc3ccc(S(=O)(=O)Nc4ccc5c(c4)CCC5)cc3)ccc2[nH]1` [Example 20, N-Indan-5-yl-4-(2-oxo-4-trifluoromethyl-1,2-dihydroquinolin-6-ylmethyl)-benzenesulfonamide] registered a half-maximal inhibitory concentration (IC50) above 10 µM.

As for `O=c1cc(C(F)(F)F)c2cc(Cc3ccc(S(=O)(=O)Nc4cccc5cnccc45)cc3)ccc2[nH]1` [Example 31, N-Isoquinolin-5-yl-4-(2-oxo-4-trifluoromethyl-1,2-dihydroquinolin-6-ylmethyl)-benzenesulfonamide], the IC50 was above 10 µM.

`Cc1ccc(CNS(=O)(=O)c2ccc(Cc3ccc4oc(=O)cc(C(F)(F)F)c4c3)cc2)c(F)c1F` [Example 197, N-(2,3-Difluoro-4-methylbenzyl)-4-(2-oxo-4-trifluoromethyl-2H-chromen-6-ylmethyl)benzenesulfonamide] showed a half-inhibitory concentration (IC50) of 1.94 µM.

Consider `O=c1cc(C(F)(F)F)c2cc(Cc3ccc(S(=O)(=O)Nc4ccc(-n5ccc(C(F)(F)F)n5)cc4)cc3)ccc2o1` [Example 155, 4-(2-Oxo-4-trifluoromethyl-2H-chromen-6-ylmethyl)-N-[4-(3-trifluoromethylpyrazol-1-yl)phenyl]benzenesulfonamide], for which the IC50 was found to be 6.5 µM.

`CSc1ccccc1CNS(=O)(=O)c1ccc(Cc2ccc3[nH]c(=O)cc(C(F)(F)F)c3c2)cc1` [Example 73, N-(2-Methylsulfanylbenzyl)-4-(2-oxo-4-trifluoromethyl-1,2-dihydroquinolin-6-ylmethyl)-benzenesulfonamide] gave an IC50 above 10 µM.

`COc1ccc(N(Cc2ccccc2)S(=O)(=O)c2ccc(Cc3ccc4[nH]c(=O)cc(C(F)(F)F)c4c3)cc2)cc1` [Example 45, N-Benzyl-N-(4-methoxyphenyl)-4-(2-oxo-4-trifluoromethyl-1,2-dihydroquinolin-6-ylmethyl)-benzenesulfonamide]: the IC50 is above 10 µM.

`CN(CCc1ccccc1)S(=O)(=O)c1ccc(Cc2ccc3oc(=O)cc(C(F)(F)F)c3c2)cc1` [Example 112, N-Methyl-4-(2-oxo-4-trifluoromethyl-2H-chromen-6-ylmethyl)-N-phenethyl-benzenesulfonamide]: the IC50 is above 10 µM.

In turn, `CCCCN(CC)S(=O)(=O)c1ccc(Cc2ccc3[nH]c(=O)cc(C(F)(F)F)c3c2)cc1` [Example 6] had a 50% inhibitory concentration (IC50) above 10 µM.

`O=c1cc(C(F)(F)F)c2cc(Cc3ccc(S(=O)(=O)NCC(c4ccccc4)c4ccccc4)cc3)ccc2[nH]1` [Example 92, N-(2,2-Diphenylethyl)-4-(2-oxo-4-trifluoromethyl-1,2-dihydroquinolin-6-ylmethyl)-benzenesulfonamide] had an IC50 of 2.71 µM.

`O=c1cc(C(F)(F)F)c2cc(Cc3ccc(S(=O)(=O)NC4CCN(Cc5ccccc5)CC4)cc3)ccc2o1` [Example 157, N-(1-Benzylpipendin-4-yl)-4-(2-oxo-4-trifluoromethyl-2H-chromen-6-ylmethyl)benzenesulfonamide]: the IC50 turned out to be 6.09 µM.

The molecule `O=c1cc(C(F)(F)F)c2cc(Cc3ccc(S(=O)(=O)NCc4c(F)cccc4Cl)cc3)ccc2[nH]1` [Example 78, N-(2-Chloro-6-fluorobenzyl)-4-(2-oxo-4-trifluoromethyl-1,2-dihydroquinolin-6-ylmethyl)-benzenesulfonamide] yielded an IC50 above 10 µM.

In turn, `Cc1ccc(F)cc1CNS(=O)(=O)c1ccc(Cc2ccc3oc(=O)cc(C(F)(F)F)c3c2)cc1` [Example 185, N-(5-Fluoro-2-methylbenzyl)-4-(2-oxo-4-trifluoromethyl-2H-chromen-6-ylmethyl)-benzenesulfonamide] showed an IC50 of 4.06 µM.

As to `Cc1cccc(CNS(=O)(=O)c2ccc(Cc3ccc4oc(=O)cc(C(F)(F)F)c4c3)cc2)c1` [Example 169, N-(3-Methylbenzyl)-4-(2-oxo-4-trifluoromethyl-2H-chromen-6-ylmethyl)benzenesulfonamide], 5.81 µM corresponded to half-maximal inhibition (IC50).

Turning to `O=c1cc(C(F)(F)F)c2cc(Cc3ccc(S(=O)(=O)Nc4cccc5c4OC(F)(F)C(F)(F)O5)cc3)ccc2[nH]1` [Example 47, 4-(2-Oxo-4-trifluoromethyl-1,2-dihydroquinolin-6-ylmethyl)-N-(2,2,3,3-tetrafluoro-2,3-dihydrobenzo[1,4]dioxin-5-yl)-benzenesufonamide], the IC50 is above 10 µM.

As to `O=c1cc(C(F)(F)F)c2cc(Cc3ccc(S(=O)(=O)NC4CCC(O)CC4)cc3)ccc2o1` (stereo not drawn) [Example 193, N-(4-Hydroxycyclohexyl)-4-(2-oxo-4-trifluoromethyl-2H-chromen-6-ylmethyl)benzenesulfonamide], the IC50 came to 9.11 µM.

`O=c1cc(C(F)(F)F)c2cc(Cc3ccc(S(=O)(=O)NCc4ccc(Cl)cc4Cl)cc3)ccc2[nH]1` [Example 85, N-(2,4-Dichlorobenzyl)-4-(2-oxo-4-trifluoromethyl-1,2-dihydroquinolin-6-ylmethyl)-benzenesulfonamide]: the IC50 is around 10 µM.

With `CCCN(CC1CC1)S(=O)(=O)c1ccc(Cc2ccc3[nH]c(=O)cc(C(F)(F)F)c3c2)cc1` [Example 9A, N-Cyclopropylmethyl-4-(2-oxo-trifluoromethyl-1,2-dihydroquinolin-6-ylmethyl)-N-propylbenzenesulfonamide], the IC50 was found to be 6.29 µM.

`CSc1ccccc1CNS(=O)(=O)c1ccc(Cc2ccc3oc(=O)cc(C(F)(F)F)c3c2)cc1` [Example 194, N-(2-Methylsulfanylbenzyl)-4-(2-oxo-4-trifluoromethyl-2H-chromen-6-ylmethyl)benzenesulfonamide] displayed an IC50 of 8 µM.

Broadly, the IC50 is the concentration at which inhibition is half-maximal. Lower therefore signals higher potency.
